Assay results reported in patent US20240041042A1, “1-(PYRIDYL)-5-AZINYLPYRAZOLE DERIVATIVES, AND THEIR USE FOR CONTROL OF UNDESIRED PLANT GROWTH” (Bayer Aktiengesellschaft, priority 2020, published 2024).
Read-outs that look alike come from different tables or passages of the source.

Experiments:
Type in all cases: in vivo
[1] = tested on: Digitaria sanguinalis (DIGSA); assay: Pre-emergence herbicidal action against DIGSA
Method in brief: (§1)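 Application rates ran to 320 g/ha or lower, with several dosages tested on the same weeds. The compound, as wettable powder or emulsion concentrate, is sprayed pre-emergence onto soil over sown seeds; greenhouse growth follows, and effect is rated visually after roughly 3 weeks.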

[2] = tested on: Echinochloa crus-galli (ECHCG); assay: Pre-emergence herbicidal action against ECHCG
Method in brief: as §1

Viola tricolor (VIOTR) = assay: Pre-emergence herbicidal action against VIOTR
Method in brief: as §1

Oryza sativa (ORYSA) [3] = conditions: crop plant compatibility; for Pre-emergence action against ORYSA: 20 g/ha, effect vs untreated controls
Method in brief: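 Crop injury rated visually in percent against untreated plants roughly 3 weeks after treatment (0% no effect, 100% plants dead). Compounds, as WP or EC with 0.5% additive in 600 l/ha water, were applied to the covering soil right after sowing; greenhouse growth. Suffixes a, b, c denote different dosages.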

Avena fatua (AVEFA) = assay: Post-emergence herbicidal action against AVEFA; conditions: visual rating about 3 weeks after treatment
Method in brief: (§2)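 Values are percent visual activity (0% like control, 100% plants dead) after about 3 weeks in the greenhouse. Treatment: post-emergence spray at one-leaf stage, 600 l/ha spray volume, 0.5% additive, doses 320 g/ha or lower.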

[4] = tested on: Digitaria sanguinalis (DIGSA); assay: Post-emergence herbicidal action against DIGSA; conditions: visual rating about 3 weeks after treatment
Method in brief: as §2

Oryza sativa (ORYSA) [5] = conditions: crop plant compatibility
Method in brief: (§3)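 Greenhouse crops in sandy loam sprayed post-emergence at the one-leaf stage, 2–3 weeks after sowing, with WP or EC formulations in water plus 0.5% additive at 600 l/ha. Damage rated visually about 3 weeks later versus untreated controls (0% = like control, 100% = dead); suffixes a–c denote different doses.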

Zea mays (ZEAMX) = conditions: for Post-emergence action against ZEAMX in % (crop plant compatibility): 20 g/ha, effect in comparison to untreated controls
Method in brief: as §3

[6] = tested on: Polygonum convolvulus (POLCO); assay: Post-emergence herbicidal action against POLCO
Method in brief: as §2

[7] = 80 g/ha, visual scoring after about 3 weeks vs untreated controls
[8] = 20 g/ha, effect vs untreated controls
[9] = 80 g/ha, effect in comparison to untreated controls

Structure (SMILES) | Pre-emergence action against ORYSA (Oryza sativa (ORYSA) [3]) [%] | Post-emergence action against ORYSA in % (Oryza sativa (ORYSA) [5]; [8]) [%] | Post-emergence action against ORYSA in % (Oryza sativa (ORYSA) [5]; [9]) [%] | Post-emergence action against ZEAMX in % (crop plant compatibility) (Zea mays (ZEAMX)) [%] | Post-emergence action against ZEAMX in % (Zea mays (ZEAMX); crop plant compatibility, 80 g/ha, effect vs untreated controls) [%] | Pre-emergence action against ORYSA in % (Oryza sativa (ORYSA) [3]; pre-emergence, 80 g/ha, in comparison to untreated controls) [%] | Post-emergence action against ORYSA in % (Oryza sativa (ORYSA) [5]; 320 g/ha, effect in comparison to untreated controls) [%] | Pre-emergence action against DIGSA in % [1, 7] [%] | Pre-emergence action against DIGSA in % ([1]; dosage 320 g/ha) [%] | Pre-emergence action against ECHCG in % ([2]; dosage 80 g/ha) [%] | Pre-emergence action against ECHCG in % ([2]; dosage 320 g/ha) [%] | Pre-emergence action against VIOTR in % (Viola tricolor (VIOTR); 320 g/ha, Viola tricolor) [%] | Pre-emergence action against VIOTR in % (Viola tricolor (VIOTR); dosage 80 g/ha) [%] | Post-emergence action against AVEFA in % (Avena fatua (AVEFA); 320 g/ha) [%] | Post-emergence action against DIGSA in % ([4]; 80 g/ha) [%] | Post-emergence action against DIGSA in % ([4]; 320 g/ha) [%] | Post-emergence action against POLCO in % ([6]; dosage 320 g/ha) [%] | Post-emergence action against AVEFA in % (Avena fatua (AVEFA); 80 g/ha) [%] | Post-emergence action against POLCO in % ([6]; dosage 80 g/ha) [%]
COC(=O)[C@H](C)COC(=O)COc1nn(-c2ccccn2)c(-c2cncc(F)c2)c1Cl [Example I-192] |  |  | 0 |  |  |  |  | 90 | 100 | 90 | 100 | 100 | 80 | 80 | 80 | 80 | 80 |  | 
CCOC(=O)COc1nn(-c2nc(F)ccc2F)c(-c2cncc(F)c2)c1Br [Example I-193] |  |  | 10 |  |  | 20 |  |  |  | 90 | 100 | 100 | 100 | 90 |  |  | 80 | 80 | 80

More lines, main results first:

Pre-emergence action against ORYSA (Oryza sativa (ORYSA) [3]) [%] | Post-emergence action against ORYSA in % (Oryza sativa (ORYSA) [5]; [8]) [%] | Post-emergence action against ORYSA in % (Oryza sativa (ORYSA) [5]; [9]) [%] | Post-emergence action against ZEAMX in % (crop plant compatibility) (Zea mays (ZEAMX)) [%] | Post-emergence action against ZEAMX in % (Zea mays (ZEAMX); crop plant compatibility, 80 g/ha, effect vs untreated controls) [%] | Pre-emergence action against ORYSA in % (Oryza sativa (ORYSA) [3]; pre-emergence, 80 g/ha, in comparison to untreated controls) [%] | Post-emergence action against ORYSA in % (Oryza sativa (ORYSA) [5]; 320 g/ha, effect in comparison to untreated controls) [%] | Structure (SMILES) | Pre-emergence action against DIGSA in % [1, 7] [%] | Pre-emergence action against DIGSA in % ([1]; dosage 320 g/ha) [%] | Pre-emergence action against ECHCG in % ([2]; dosage 80 g/ha) [%] | Pre-emergence action against ECHCG in % ([2]; dosage 320 g/ha) [%] | Pre-emergence action against VIOTR in % (Viola tricolor (VIOTR); 320 g/ha, Viola tricolor) [%] | Pre-emergence action against VIOTR in % (Viola tricolor (VIOTR); dosage 80 g/ha) [%] | Post-emergence action against AVEFA in % (Avena fatua (AVEFA); 320 g/ha) [%] | Post-emergence action against DIGSA in % ([4]; 80 g/ha) [%] | Post-emergence action against DIGSA in % ([4]; 320 g/ha) [%] | Post-emergence action against POLCO in % ([6]; dosage 320 g/ha) [%] | Post-emergence action against AVEFA in % (Avena fatua (AVEFA); 80 g/ha) [%] | Post-emergence action against POLCO in % ([6]; dosage 80 g/ha) [%]
0 | 0 | 10 | 10 |  |  |  | O=C(O)COc1nn(-c2ncccc2F)c(-c2ccc(F)nc2)c1Br [Example I-17] | 100 | 100 | 90 | 90 | 100 | 100 | 80 | 90 | 90 |  |  | 
20 | 0 | 10 | 10 | 20 |  |  | COC(=O)COc1nn(-c2ncccc2F)c(-c2cncc(F)c2)c1Br [Example I-16] | 100 | 100 | 90 | 90 | 100 | 100 |  |  |  |  |  | 
 |  | 10 |  |  |  | 20 | O=C(O)COc1nn(-c2ccccn2)c(-c2cncnc2)c1Br [Example I-66] | 100 | 100 | 80 | 100 | 100 | 90 | 100 |  | 90 | 90 |  | 80
